Data from article PMC5218480 (PLoS ONE, 2017).

Test system: MV-4-11 cells
Assay: Gene expression microarray analysis (Affymetrix PrimeView) and GSEA
Format: cell-based, human
Design: RFU PODN (11730768_x_at) / Fold change /veh PODN (11730768_x_at) / RFU LINC00158 (11744669_a_at) / Fold change /veh LINC00158 (11744669_a_at) / RFU DUSP10 (11751237_a_at) / Fold change /veh DUSP10 (11751237_a_at) / RFU ID3 (11757404_x_at) / Fold change /veh ID3 (11757404_x_at) / RFU PLEKHG5 (11737974_s_at) / Fold change /veh PLEKHG5 (11737974_s_at) / RFU LRRC4B (11730491_at) / Fold change /veh LRRC4B (11730491_at) / RFU GIMAP4 (11747438_a_at) / Fold change /veh GIMAP4 (11747438_a_at) / RFU KRT8 (11758183_x_at) / Fold change /veh KRT8 (11758183_x_at) / RFU CNN1 (11734310_a_at) / Fold change /veh CNN1 (11734310_a_at) / RFU VPS37D (11726825_at) / Fold change /veh VPS37D (11726825_at) / RFU C10orf10 (11716522_x_at) / Fold change /veh C10orf10 (11716522_x_at) / RFU KIR2DL2 /// KIR2DL4 /// KIR2DL5A /// KIR2DL5B /// KIR2DS1 /// KIR2DS2 /// KIR2DS3 /// KIR2DS4 /// KIR3DL3 /// KIR3DL3 /// KIR3DS1 (11738374_at) / Fold change /veh KIR2DL2 /// KIR2DL4 /// KIR2DL5A /// KIR2DL5B /// KIR2DS1 /// KIR2DS2 /// KIR2DS3 /// KIR2DS4 /// KIR3DL3 /// KIR3DL3 /// KIR3DS1 (11738374_at) / RFU C1QL1 (11718748_at) / Fold change /veh C1QL1 (11718748_at) / RFU TMPRSS4 (11747572_a_at) / Fold change /veh TMPRSS4 (11747572_a_at) / RFU HAMP (11756126_x_at) / Fold change /veh HAMP (11756126_x_at) / RFU RNFT2 (11725882_a_at) / Fold change /veh RNFT2 (11725882_a_at) / RFU NR4A2 (11747474_a_at) / Fold change /veh NR4A2 (11747474_a_at) / RFU ABCC12 (11746883_a_at) / Fold change /veh ABCC12 (11746883_a_at) / RFU TMEM136 (11760407_x_at) / Fold change /veh TMEM136 (11760407_x_at) / RFU CLDN22 /// WWC2 (11732394_at) / Fold change /veh CLDN22 /// WWC2 (11732394_at) / RFU HLA-DPB1 (11760878_x_at) / Fold change /veh HLA-DPB1 (11760878_x_at) / RFU SPINT1 (11716480_a_at) / Fold change /veh SPINT1 (11716480_a_at) / RFU GAP43 (11754022_s_at) / Fold change /veh GAP43 (11754022_s_at) / RFU A4GNT (11735810_at) / Fold change /veh A4GNT (11735810_at) / RFU PRB3 (11715151_x_at) / Fold change /veh PRB3 (11715151_x_at) / RFU TUBB4B (11761932_at) / Fold change /veh TUBB4B (11761932_at) / RFU CAPN14 (11732068_a_at) / Fold change /veh CAPN14 (11732068_a_at) / RFU TMCC2 (11721928_a_at) / Fold change /veh TMCC2 (11721928_a_at) / RFU IRGQ (11745062_a_at) / Fold change /veh IRGQ (11745062_a_at) / RFU FAM174B (11720279_a_at) / Fold change /veh FAM174B (11720279_a_at) / RFU TMPRSS4 (11748680_a_at) / Fold change /veh TMPRSS4 (11748680_a_at) / RFU FAM212B (11763350_a_at) / Fold change /veh FAM212B (11763350_a_at) / RFU PLEKHG5 (11743358_a_at) / Fold change /veh PLEKHG5 (11743358_a_at) / RFU ZSCAN30 (11745921_a_at) / Fold change /veh ZSCAN30 (11745921_a_at) / RFU CMKLR1 (11741424_a_at) / Fold change /veh CMKLR1 (11741424_a_at) / RFU LOC101060620 /// MAPK8IP1 (11723275_at) / Fold change /veh LOC101060620 /// MAPK8IP1 (11723275_at) / RFU SPTSSB (11747773_x_at) / Fold change /veh SPTSSB (11747773_x_at) / RFU PRSS12 (11739890_at) / Fold change /veh PRSS12 (11739890_at) / RFU BIN1 (11741810_x_at) / Fold change /veh BIN1 (11741810_x_at) / RFU WNT11 (11732464_a_at) / Fold change /veh WNT11 (11732464_a_at) / RFU C10orf10 (11716521_a_at) / Fold change /veh C10orf10 (11716521_a_at) / RFU C5orf56 (11738089_at) / Fold change /veh C5orf56 (11738089_at) / RFU CYB561 (11721691_x_at) / Fold change /veh CYB561 (11721691_x_at) / RFU ANKRD19P (11752326_a_at) / Fold change /veh ANKRD19P (11752326_a_at) / RFU OR2T12 /// OR2T33 /// OR2T8 (11738714_s_at) / Fold change /veh OR2T12 /// OR2T33 /// OR2T8 (11738714_s_at) / RFU VCAN (11748164_a_at) / Fold change /veh VCAN (11748164_a_at) / RFU JSRP1 (11732532_at) / Fold change /veh JSRP1 (11732532_at) / RFU KRTAP10-11 (11738290_x_at) / Fold change /veh KRTAP10-11 (11738290_x_at) / RFU MYO3A (11730013_a_at) / Fold change /veh MYO3A (11730013_a_at) / RFU EBF3 (11725865_a_at) / Fold change /veh EBF3 (11725865_a_at) / RFU CAMK2N1 (11719241_x_at) / Fold change /veh CAMK2N1 (11719241_x_at) / RFU C5orf56 (11738088_a_at) / Fold change /veh C5orf56 (11738088_a_at) / RFU OLFML3 (11715873_a_at) / Fold change /veh OLFML3 (11715873_a_at) / RFU LOC100653217 /// NTM (11731650_a_at) / Fold change /veh LOC100653217 /// NTM (11731650_a_at) / RFU MAPK11 (11762145_a_at) / Fold change /veh MAPK11 (11762145_a_at) / RFU FIZ1 (11724087_x_at) / Fold change /veh FIZ1 (11724087_x_at) / RFU OASL (11726364_x_at) / Fold change /veh OASL (11726364_x_at) / RFU SOX15 (11748057_x_at) / Fold change /veh SOX15 (11748057_x_at) / RFU CD79A (11719716_a_at) / Fold change /veh CD79A (11719716_a_at) / RFU HIST1H1D (11736915_at) / Fold change /veh HIST1H1D (11736915_at) / RFU CASKIN2 (11723855_a_at) / Fold change /veh CASKIN2 (11723855_a_at) / RFU LOC730098 (11760151_x_at) / Fold change /veh LOC730098 (11760151_x_at) / RFU OR4N2 (11742367_at) / Fold change /veh OR4N2 (11742367_at) / RFU PRRT2 (11749266_a_at) / Fold change /veh PRRT2 (11749266_a_at) / RFU SNX32 (11753110_a_at) / Fold change /veh SNX32 (11753110_a_at) / RFU CDHR5 (11726645_a_at) / Fold change /veh CDHR5 (11726645_a_at) / RFU RCAN1 (11760418_a_at) / Fold change /veh RCAN1 (11760418_a_at) / RFU FAM167A (11723789_a_at) / Fold change /veh FAM167A (11723789_a_at) / RFU FAM26E (11764081_at) / Fold change /veh FAM26E (11764081_at) / RFU ISYNA1 (11749810_s_at) / Fold change /veh ISYNA1 (11749810_s_at) / RFU ACY1 (11761880_at) / Fold change /veh ACY1 (11761880_at) / RFU 11764098_at / Fold change /veh 11764098_at / RFU SAMD14 (11745864_x_at) / Fold change /veh SAMD14 (11745864_x_at) / RFU NPB (11741838_a_at) / Fold change /veh NPB (11741838_a_at) / RFU TMPRSS6 (11731388_a_at) / Fold change /veh TMPRSS6 (11731388_a_at) / RFU KRTAP10-2 (11738614_at) / Fold change /veh KRTAP10-2 (11738614_at) / RFU ARHGAP8 /// PRR5-ARHGAP8 (11727945_x_at) / Fold change /veh ARHGAP8 /// PRR5-ARHGAP8 (11727945_x_at) / RFU KRTAP5-7 /// NADSYN1 (11734609_at) / Fold change /veh KRTAP5-7 /// NADSYN1 (11734609_at) / RFU RASL12 (11751679_a_at) / Fold change /veh RASL12 (11751679_a_at) / RFU CDKN2B (11736163_a_at) / Fold change /veh CDKN2B (11736163_a_at) / RFU PRF1 (11729649_at) / Fold change /veh PRF1 (11729649_at) / RFU, ZNF638 /// ZNF638-IT1 / Fold change vs veh, ZNF638 /// ZNF638-IT1 / RFU, PANK3 / Fold change vs veh, PANK3 / RFU, SH3YL1 / Fold change vs veh, SH3YL1 / RFU, ZEB2 / Fold change vs veh, ZEB2 / RFU, NRIP1 / Fold change vs veh, NRIP1 / RFU, PTTG1IP / Fold change vs veh, PTTG1IP / RFU, CAPN2 / Fold change vs veh, CAPN2 / RFU, MED14 / Fold change vs veh, MED14 / RFU, SNORA58 / Fold change vs veh, SNORA58 / RFU, C1orf63 / Fold change vs veh, C1orf63 / RFU, LRRFIP1 / Fold change vs veh, LRRFIP1 / RFU, NDUFAF7 / Fold change vs veh, NDUFAF7 / RFU, SLC12A2 / Fold change vs veh, SLC12A2 / RFU, IBTK / Fold change vs veh, IBTK / RFU, ESF1 / Fold change vs veh, ESF1 / Fold change vs veh, TMEM50B / RFU, TAOK1 / Fold change vs veh, TAOK1 / RFU, ACBD3 / Fold change vs veh, ACBD3 / RFU, TMA16 / Fold change vs veh, TMA16 / RFU, RWDD3 / Fold change vs veh, RWDD3 / RFU, BCAT1 / Fold change vs veh, BCAT1 / RFU, EDEM3 / Fold change vs veh, EDEM3 / RFU, TMEM33 / Fold change vs veh, TMEM33 / RFU, WDR75 / Fold change vs veh, WDR75 / RFU, AHCTF1 / Fold change vs veh, AHCTF1 / RFU, TFRC / Fold change vs veh, TFRC / RFU, ZDHHC17 / Fold change vs veh, ZDHHC17 / RFU, NOM1 / Fold change vs veh, NOM1 / RFU, ARL8B / Fold change vs veh, ARL8B / RFU, ZBTB11 / Fold change vs veh, ZBTB11 / RFU, TAMM41 / Fold change vs veh, TAMM41 / RFU, KIAA1704 /// LOC100996395 / Fold change vs veh, KIAA1704 /// LOC100996395 / RFU, ING1 / Fold change vs veh, ING1 / RFU, TRMT61B / Fold change vs veh, TRMT61B / RFU, FUBP3 / Fold change vs veh, FUBP3 / RFU, TP53 / Fold change vs veh, TP53 / RFU, TNKS2 / Fold change vs veh, TNKS2 / RFU, ZFP14 / Fold change vs veh, ZFP14 / RFU, ACTR2 / Fold change vs veh, ACTR2 / RFU, PPP3R1 / Fold change vs veh, PPP3R1 / RFU, PIK3R1 / Fold change vs veh, PIK3R1 / RFU, HNRNPA1 / Fold change vs veh, HNRNPA1 / RFU, RNF170 / Fold change vs veh, RNF170 / RFU, ZNF28 / Fold change vs veh, ZNF28 / RFU, RNGTT / Fold change vs veh, RNGTT / RFU, OGT / Fold change vs veh, OGT / RFU, BRD1 / Fold change vs veh, BRD1 / RFU, MARS / Fold change vs veh, MARS / RFU, ZNF655 / Fold change vs veh, ZNF655 / RFU, FAHD1 / Fold change vs veh, FAHD1 / RFU, BDP1 / Fold change vs veh, BDP1 / RFU, LRRCC1 / Fold change vs veh, LRRCC1 / RFU, ARID1A / Fold change vs veh, ARID1A / RFU, ZNF146 / Fold change vs veh, ZNF146 / RFU, ZNF330 / Fold change vs veh, ZNF330 / RFU, GPN3 / Fold change vs veh, GPN3 / RFU, C9orf123 / Fold change vs veh, C9orf123 / RFU, N4BP2L2 / Fold change vs veh, N4BP2L2 / RFU, ARFIP1 / Fold change vs veh, ARFIP1 / RFU, FAM179B / Fold change vs veh, FAM179B / RFU, BCL10 / Fold change vs veh, BCL10 / RFU, UHRF1BP1L / Fold change vs veh, UHRF1BP1L / RFU, BET1 / Fold change vs veh, BET1 / RFU, CNOT2 / Fold change vs veh, CNOT2 / RFU, ZNF268 / Fold change vs veh, ZNF268 / Fold change vs veh, ZNF507 / RFU, DGCR2 / Fold change vs veh, DGCR2 / RFU, WDSUB1 / Fold change vs veh, WDSUB1 / Fold change vs veh, HSP90B1 /// MIR3652 / RFU, ADSS / Fold change vs veh, ADSS / RFU, GK / Fold change vs veh, GK / RFU, ZNF148 / Fold change vs veh, ZNF148 / RFU, TAF9 / Fold change vs veh, TAF9 / RFU, SLC1A5 / Fold change vs veh, SLC1A5 / RFU, SLMO2 / Fold change vs veh, SLMO2 / RFU, ABCC4 / Fold change vs veh, ABCC4 / RFU, LOC101060439 /// RAP1B / Fold change vs veh, LOC101060439 /// RAP1B / RFU, RFX7 / Fold change vs veh, RFX7 / RFU, GTPBP10 / Fold change vs veh, GTPBP10 / RFU, CNEP1R1 / Fold change vs veh, CNEP1R1 / RFU, BIVM-ERCC5 /// ERCC5 / Fold change vs veh, BIVM-ERCC5 /// ERCC5 / RFU, ILF3 / Fold change vs veh, ILF3 / RFU 11762660_at / Fold change /veh 11762660_at / RFU VCAN (11757783_s_at) / Fold change /veh VCAN (11757783_s_at) / RFU DDX43 (11728927_at) / Fold change /veh DDX43 (11728927_at) / RFU KRT8 (11758188_x_at) / Fold change /veh KRT8 (11758188_x_at) / RFU NKD1 (11759106_at) / Fold change /veh NKD1 (11759106_at) / RFU SRD5A1 (11742802_a_at) / Fold change /veh SRD5A1 (11742802_a_at) / RFU TPSAB1 /// TPSB2 (11721975_s_at) / Fold change /veh TPSAB1 /// TPSB2 (11721975_s_at) / RFU GSTM3 (11746129_a_at) / Fold change /veh GSTM3 (11746129_a_at) / RFU IL23R (11737362_x_at) / Fold change /veh IL23R (11737362_x_at) / RFU TMEM51 (11727254_a_at) / Fold change /veh TMEM51 (11727254_a_at) / RFU PIWIL2 (11732686_x_at) / Fold change /veh PIWIL2 (11732686_x_at) / RFU ORM1 (11744905_x_at) / Fold change /veh ORM1 (11744905_x_at) / RFU CCDC152 (11743942_at) / Fold change /veh CCDC152 (11743942_at) / RFU ECM1 (11717891_a_at) / Fold change /veh ECM1 (11717891_a_at) / RFU IL23R (11748794_a_at) / Fold change /veh IL23R (11748794_a_at) / RFU TNFAIP8L3 (11732012_x_at) / Fold change /veh TNFAIP8L3 (11732012_x_at) / RFU MBOAT4 (11741988_at) / Fold change /veh MBOAT4 (11741988_at) / RFU 11764193_at / Fold change /veh 11764193_at / RFU TMEM53 (11763286_at) / Fold change /veh TMEM53 (11763286_at) / RFU MAGEB2 (11727129_at) / Fold change /veh MAGEB2 (11727129_at) / RFU TMEM200A (11744735_a_at) / Fold change /veh TMEM200A (11744735_a_at) / RFU CCDC152 (11751479_a_at) / Fold change /veh CCDC152 (11751479_a_at) / RFU FAM211A (11726209_a_at) / Fold change /veh FAM211A (11726209_a_at) / RFU RGS16 (11746705_a_at) / Fold change /veh RGS16 (11746705_a_at) / RFU VCAN (11755009_s_at) / Fold change /veh VCAN (11755009_s_at) / RFU RHOB (11743442_s_at) / Fold change /veh RHOB (11743442_s_at) / RFU RGS16 (11720943_a_at) / Fold change /veh RGS16 (11720943_a_at) / RFU RGS16 (11720944_at) / Fold change /veh RGS16 (11720944_at) / RFU, VPS4B / Fold change vs veh, VPS4B / RFU, CREB1 / Fold change vs veh, CREB1 / RFU, DNAJC13 / Fold change vs veh, DNAJC13 / RFU, GNAQ / Fold change vs veh, GNAQ / RFU, CDK5R1 / Fold change vs veh, CDK5R1 / RFU, ZRANB3 / Fold change vs veh, ZRANB3 / RFU, CUL4A / Fold change vs veh, CUL4A / RFU, CCNY / Fold change vs veh, CCNY / RFU, UFL1 / Fold change vs veh, UFL1 / RFU, COG3 / Fold change vs veh, COG3 / RFU, DIAPH2 / Fold change vs veh, DIAPH2 / RFU, SKA2 / Fold change vs veh, SKA2 / RFU, AFF3 / Fold change vs veh, AFF3 / RFU, LMF1 / Fold change vs veh, LMF1 / RFU, IPO11 / Fold change vs veh, IPO11 / RFU, DFFB / Fold change vs veh, DFFB / RFU, FOXP1 / Fold change vs veh, FOXP1 / RFU, CARD8 / Fold change vs veh, CARD8 / RFU, STRN3 / Fold change vs veh, STRN3 / RFU, ADK / Fold change vs veh, ADK / RFU, RASSF2 / Fold change vs veh, RASSF2 / RFU, WIPF1 / Fold change vs veh, WIPF1 / RFU, LARP1B / Fold change vs veh, LARP1B / RFU, RASA1 / Fold change vs veh, RASA1 / RFU, RB1 / Fold change vs veh, RB1 / RFU, PPFIA1 / Fold change vs veh, PPFIA1 / RFU, MAT2A / Fold change vs veh, MAT2A / RFU, CCT5 / Fold change vs veh, CCT5 / RFU, WDR92 / Fold change vs veh, WDR92 / RFU, CUX1 / Fold change vs veh, CUX1 / RFU, TTC7A / Fold change vs veh, TTC7A / RFU, TMEM135 / Fold change vs veh, TMEM135 / RFU, DEPTOR / Fold change vs veh, DEPTOR / RFU, CPM / Fold change vs veh, CPM / RFU, DNAJB6 / Fold change vs veh, DNAJB6 / RFU, CACNA2D3 / Fold change vs veh, CACNA2D3 / RFU, DTX4 / Fold change vs veh, DTX4 / RFU, TFCP2 / Fold change vs veh, TFCP2 / RFU, GMCL1 /// GMCL1P1 / Fold change vs veh, GMCL1 /// GMCL1P1 / RFU, AEBP2 / Fold change vs veh, AEBP2 / RFU, SNHG1 /// SNORD22 /// SNORD25 /// SNORD26 /// SNORD27 /// SNORD28 /// SNORD29 /// SNORD31 / Fold change vs veh, SNHG1 /// SNORD22 /// SNORD25 /// SNORD26 /// SNORD27 /// SNORD28 /// SNORD29 /// SNORD31 / Fold change (Aza/veh), C12orf56 (ProbeSet 11735607_a_at) / Fold change (ACY-1035/veh), C12orf56 (ProbeSet 11735607_a_at) / Fold change (Aza/veh), FGFR1OP (ProbeSet 11751329_s_at) / Fold change (ACY-1035/veh), FGFR1OP (ProbeSet 11751329_s_at) / Fold change (Aza/veh), VPS36 (ProbeSet 11739960_a_at) / Fold change (ACY-1035/veh), VPS36 (ProbeSet 11739960_a_at) / RFU SYPL1 (11715823_x_at) / Fold change /veh SYPL1 (11715823_x_at) / RFU IGFBP7 (11715501_s_at) / Fold change /veh IGFBP7 (11715501_s_at) / RFU REEP3 (11722064_at) / Fold change /veh REEP3 (11722064_at) / RFU IGLL1 (11728026_x_at) / Fold change /veh IGLL1 (11728026_x_at): dose or concentration left out as unconfirmed
Conditions: ProbeSet 11741311_a_at; LIST B

## Nc1ncn([C@@H]2O[C@H](CO)[C@@H](O)[C@H]2O)c(=O)n1 [azacitidine]
  Fold change vs veh, ZNF655: 0.98
